From the supplement of paper PMC10307832

How the values were obtained:
Assay in all cases: relative viability (nuclei count vs DMSO), 5 days (fraction); higher = more cells survive
[1] = system: BEN
Procedure, shortened: (§1)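 Cells from lung cancer lines were seeded into 1536-well plates and, one day later, dosed by pin tool. Treatments were either a single drug or a fixed dose of an anchor drug with five library-drug doses (not always all listed) in √10 steps. After 5 days, nuclei were stained in a one-step fixation (final 0.05% Triton X-100, 1% formaldehyde, 1 ug/ml Hoechst) and counted on 4× images, and relative viability is the treated-to-vehicle nuclei ratio, as the median of duplicate plates.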

[2] = system: EKVX
Procedure, shortened: as §1

[3] = system: HARA
Procedure, shortened: as §1

[4] = system: HCC-366
Procedure, shortened: as §1

[5] = system: HCC-44
Procedure, shortened: as §1

[6] = system: HCC-827
Procedure, shortened: as §1

[7] = system: LC-2-ad
Procedure, shortened: as §1

[8] = system: LOU-NH91
Procedure, shortened: as §1

[9] = system: NCI-H1355
Procedure, shortened: as §1

[10] = system: NCI-H1395
Procedure, shortened: as §1

[11] = system: NCI-H1437
Procedure, shortened: as §1

[12] = system: NCI-H1734
Procedure, shortened: as §1

[13] = system: NCI-H1792
Procedure, shortened: as §1

[14] = system: NCI-H2009
Procedure, shortened: as §1

[15] = system: NCI-H2087
Procedure, shortened: as §1

[16] = system: NCI-H2170
Procedure, shortened: as §1

[17] = system: NCI-H2342
Procedure, shortened: as §1

[18] = system: NCI-H2405
Procedure, shortened: as §1

[19] = system: NCI-H596
Procedure, shortened: as §1

[20] = system: NCI-H647
Procedure, shortened: as §1

[21] = system: NCI-H661
Procedure, shortened: as §1

[22] = system: SK-LU-1
Procedure, shortened: as §1

[23] = system: SK-MES-1
Procedure, shortened: as §1

Which results are given for `CC(C)Oc1cc(Nc2nc(N[C@@H](C)c3ccc(F)cn3)ncc2Cl)n[nH]1` [AZ23] + Nc1ncn([C@H]2C[C@H](O)[C@@H](CO)O2)c(=O)n1 [Decitabine] (partner 2 µM)?
relative viability ([1]; first compound 0.01 µM): 0.736; relative viability ([1]; first compound 0.03162 µM): 0.829; relative viability ([1]; first compound 0.3162 µM): 0.667; relative viability ([2]; first compound 0.01 µM): 0.395; relative viability ([2]; first compound 0.03162 µM): 0.365; relative viability ([2]; first compound 0.3162 µM): 0.345; relative viability ([3]; first compound 0.01 µM): 0.621; relative viability ([3]; first compound 0.03162 µM): 0.581; relative viability ([3]; first compound 0.3162 µM): 0.504; relative viability ([4]; first compound 0.01 µM): 0.319; relative viability ([4]; first compound 0.03162 µM): 0.373; relative viability ([4]; first compound 0.3162 µM): 0.333; relative viability ([5]; first compound 0.01 µM): 1.03; relative viability ([5]; first compound 0.03162 µM): 0.973; relative viability ([5]; first compound 0.3162 µM): 0.979; relative viability ([6]; first compound 0.01 µM): 0.361; relative viability ([6]; first compound 0.03162 µM): 0.316; relative viability ([6]; first compound 0.3162 µM): 0.323; relative viability ([7]; first compound 0.01 µM): 1.01; relative viability ([7]; first compound 0.03162 µM): 0.862; relative viability ([7]; first compound 0.3162 µM): 0.782; relative viability ([8]; first compound 0.01 µM): 0.817; relative viability ([8]; first compound 0.03162 µM): 0.888; relative viability ([8]; first compound 0.3162 µM): 0.818; relative viability ([9]; first compound 0.01 µM): 0.377; relative viability ([9]; first compound 0.03162 µM): 0.366; relative viability ([9]; first compound 0.3162 µM): 0.333; relative viability ([10]; first compound 0.03162 µM): 0.713; relative viability ([10]; first compound 0.3162 µM): 0.704; relative viability ([11]; first compound 0.01 µM): 0.57; relative viability ([11]; first compound 0.03162 µM): 0.552; relative viability ([11]; first compound 0.3162 µM): 0.56; relative viability ([12]; first compound 0.01 µM): 0.532; relative viability ([12]; first compound 0.03162 µM): 0.521; relative viability ([12]; first compound 0.3162 µM): 0.482; relative viability ([13]; first compound 0.01 µM): 0.462; relative viability ([13]; first compound 0.03162 µM): 0.549; relative viability ([13]; first compound 0.3162 µM): 0.48; relative viability ([14]; first compound 0.01 µM): 0.406; relative viability ([14]; first compound 0.03162 µM): 0.356; relative viability ([14]; first compound 0.3162 µM): 0.396; relative viability ([15]; first compound 0.01 µM): 0.303; relative viability ([15]; first compound 0.03162 µM): 0.265; relative viability ([15]; first compound 0.3162 µM): 0.237; relative viability ([16]; first compound 0.01 µM): 0.482; relative viability ([16]; first compound 0.03162 µM): 0.475; relative viability ([16]; first compound 0.3162 µM): 0.483; relative viability ([17]; first compound 0.01 µM): 0.716; relative viability ([17]; first compound 0.03162 µM): 0.778; relative viability ([17]; first compound 0.3162 µM): 0.649; relative viability ([18]; first compound 0.01 µM): 0.774; relative viability ([18]; first compound 0.03162 µM): 0.805; relative viability ([18]; first compound 0.3162 µM): 0.721; relative viability ([19]; first compound 0.01 µM): 1.17; relative viability ([19]; first compound 0.03162 µM): 1.07; relative viability ([19]; first compound 0.3162 µM): 0.955; relative viability ([20]; first compound 0.01 µM): 0.364; relative viability ([20]; first compound 0.03162 µM): 0.415; relative viability ([20]; first compound 0.3162 µM): 0.41; relative viability ([21]; first compound 0.01 µM): 0.556; relative viability ([21]; first compound 0.03162 µM): 0.582; relative viability ([21]; first compound 0.3162 µM): 0.604; relative viability ([22]; first compound 0.03162 µM): 0.651; relative viability ([22]; first compound 0.3162 µM): 0.643; relative viability ([23]; first compound 0.03162 µM): 0.382; relative viability ([23]; first compound 0.3162 µM): 0.357
